# Measurements reported in patent US11465984B2, “Compound having ERK kinase inhibitory activity and use thereof” (SHANGHAI HAIHE PHARMACEUTICAL CO., LTD., priority 2017, dated 2022).
# What was measured:
# [1] = Permeability study, Caco-2 cell in vitro drug absorption model; assay type: in vitro ADME; settings: human
# Description: The permeability of Compound P9 of the invention and Compound A107 of WO2017/114510A1 was determined using Caco-2 cell in vitro drug absorption model in this Example
# • Cell: human intestinal cancer Caco2 (HTB-37, ATCC) • Petri dish: 10 cm petri dish (430167, Corning) • Millicell-24 microplage (PSHT010R5, Millipore) • Buffer: PBS (14190, Invitrogen) • HEPES (H0887, Sigma) • HBSS (H8264, Sigma) • Substances related to cell culture: • high glucose DMEM medium (L0103-500, Biowest) • fetal bovine serum (S1810-500, Biowest) • trypsin (255200-056, Invitrogen) • nonessential amino acid (M7145, Sigma) • penicillin and streptomycin (B-13234, GIBCO) • sodium pyruvate (11360-070, Invitrogen) • L-glutamine (25030-081, Invitrogen) • Relevant reagents: fluorescein (L0144, Sigma) • propranolol (P831800, Sigma) • colchicine (C9754, Sigma) • atenolol (A7655, Sigma) • Instruments: liquid chromatography (Waters Acquity UPLC I-class, Waters) • mass spectrometry (Waters xevo TQ-S MS/MS, Waters) • ohmmeter (Millicell-ERS, Thermo) • microplate reader (Infinite Pro, Tecan) (2). Assay Protocol:
# • 1) The Caco-2 cells were revived, and incubated in a 10 cm petri dish in a 5-6% CO2 and 95% RH incubator at 37° C. […] The cells were re-suspended in 6 ml complete medium, and counted three times. • 3) The cells were harvested by centrifugation at 1000 rpm for 5 min, and diluted in suspension. […]
# [2] = Pharmacokinetic study, single IV and PO administration to ICR mice; assay type: in vivo
# Description: The pharmacokinetic parameters of Compound P9 of the invention and the representative compounds of WO2017/114510A1 in mice were determined in this Example.
# (1) In Vivo Pharmacokinetics Protocol for Single Intravenous (IV) and Oral (PO) Administration to ICR Mice
# The concentration during formulation of test substances was calculated on the basis of pure free base.
# The test substance was accurately weighed, and added with the excipients (5% DMSO+5% Solutol+90% saline) in the specified amounts. After complete dissolution, the dosing solution for intravenous injection was obtained at the concentration of 0.2 mg/mL.
# The test compound was accurately weighed, and added with the excipients (0.4% methylcellulose (viscosity: 400 cps)) in the specified amount. After sufficiently mixing, the dosing solution for oral administration was obtained at the concentration of 1 mg/mL.
# Forty male SPF grade ICR mice were purchased from Shanghai Xipuer-Bikai Laboratory Animal Co., Ltd., and 30 normal healthy ICR mice of them passed the physical examination and were used in this study. Animal weight: 20.12-25.56 g.
# Blood was collected through the orbit or through cardiac puncture after carbon dioxide (CO2) euthanasia. About 0.20 milliliter (mL) of blood was collected for each sample with heparin sodium as anticoagulant agent. The samples were placed on ice after collection. […]
# The biological samples of the test substances were analyzed by LC-MS/MS. […]
# The pharmacokinetic parameters were calculated from the blood concentration data of the drug, using WinNonlin 7.0 to provide the parameters such as AUC0-t, AUC0-∞, MRT0-∞, Cmax, Tmax, and T1/2, and the average and standard deviation thereof.
# For those samples with concentrations below the lower limit of quantitation, when calculating the pharmacokinetic parameters, samples collected before Cmax should be calculated as zero, and samples collected at the points after Cmax should be calculated as being below the limit of qualitification (BLQ).
compound,measurement,setting,value
"Cn1nccc1Nc1cc(-c2cc(F)c3c(c2)CCN3C(=O)Cc2cccnc2Cl)ccn1 [Example P9, 2-(2-chloropyridin-3-yl)-1-(7-fluoro-5-(2-((1-methyl-1H-pyrazol-5-yl)amino)pyridin-4-yl)indolin-1-yl)ethan-1-one]","efflux ratio at 1.5 h, 20 μm",[1],1.3
same,"Papp A→B at 1.5 h, 20 μm","[1]; Papp, Apical to Basal, 20 μm, 1.5 h, read-out: apparent permeability coefficient (Caco-2) From A to B",23.7 ×10⁻⁶ cm/s
same,CLz,[2],CLz/(L/hr/kg): 0.36
same,F,[2]; po,"F/(%, po): 60.55"
same,nAUC0-t,[2]; po,"nAUC0-t/(ng · h/ mL, po): 1696.3"
